The values that follow come from US20240181022A1, “AMURINS LYSINS, AND LYSIN-ANTIMICROBIAL PEPTIDE (AMP) CONSTRUCTS ACTIVE AGAINST GRAM-NEGATIVE BACTERIA” (priority 2021, published 2024).

“And” between values parts separate entries of the source, which are not always exact repeats. Equal entries are not always repeated. Where no end group is shown, it is not given here. [ ]: non-standard residue; d: D form.

In test [1] the test system is M. scrofulaceum. The experiment in a line: MIC against M. scrofulaceum. Conditions: M. scrofulaceum (ATCC 19981); CAAT media. It counts as cell-based, Mycobacterium scrofulaceum.
Test [2] has as its system M. kansasii. The test can be described thus: MIC against M. kansasii. It counts as cell-based, Mycobacterium kansasii. Conditions: M. kansasi (ATCC 12478); CAAT media.
For test [3], the system named is M. intracellulare. The test can be described thus: MIC against M. intracellulare. Type of test: cell-based, Mycobacterium intracellulare. Conditions: M. intracellulare (ATCC 13950); CAAT media.
Test [4] relates to M. smegmatis. The test can be described thus: MIC against M. smegmatis. Type of test: cell-based, Mycobacterium smegmatis. Conditions: M. smegmatis (MC 155); CAAT media.
For test [5], the system named is M. fortuitum. The test can be described thus: MIC against M. fortuitum. Type of test: cell-based, Mycobacterium fortuitum. The note with it: M. fortuitum (ATCC 6841); CAAT media.
Test [6] concerns M. tuberculosis. It counts as cell-based, Mycobacterium tuberculosis. Conditions: M. tuberculosis (ATCC 35817); (ADC, T) media.
For test [7], the system named is M. avium. The test can be described thus: MIC against M. avium. Type of test: cell-based, Mycobacterium avium. The note with it: M. avium (ATCC 700898); CAAT media.
The subject of test [8] is P. aeruginosa. The experiment in a line: Checkerboard synergy assay (FICI) with antibiotics against P. aeruginosa. Type of test: cell-based, Pseudomonas aeruginosa. The note with it: for Antibiotic MIC (single agent): P. aeruginosa strain AR-769; for Antibiotic FIC / Antibiotic MIC (combo): P. aeruginosa strain AR-769, in combination with GN370; for Antibiotic MIC (combo): in µg/mL. The method, then:
Any known method to assess MIC may be used.
Checkerboards are constructed by first preparing columns of e.g., a 96-well polypropylene microtiter plate, wherein each well has the same amount of antibiotic diluted 2-fold along the horizontal axis. […] Bacteria are added to the drug combinations at concentrations of 1×10^5 […] in CAA, for example, with or without human serum or pulmonary surfactant. […] Summation fractional inhibitory concentrations (ΣFICs) are calculated for each drug and the minimum ΣFIC value (ΣFICmin) is used to determine the effect of the Chp peptide/antibiotic combination.
The synergy of GN370 with meropenem was evaluated against 3 different strains of P. aeruginosa and three different strains of B. cenocepacia.
GN370 was further tested in combination with up to seven additional antibiotics (in addition to meropenem) against a variety of bacterial strains, including P. aeruginosa, A. baumannii, E. coli, E. cloacae, and K. pneumoniae. GN370 and the subject antibiotics were tested in a checkerboard assay format, and FICI values were determined, wherein ≤0.5 indicates synergy, >0.5-≤1 indicates additive; and >1 indicates indifferent.

As to “Chp8: Chp peptide, SEQ ID NO: 8 (MSKKRSRMSRRRSKKLFSKTALRTKSVNTRPPMRGGFRF; listed as Chlamydia trachomatis)”, the MIC in test [1] amounted to 4 µg/mL; in test [2], 4 µg/mL; in test [3], 4 µg/mL; in test [4], 8 µg/mL; in test [5], 2 µg/mL; in test [6], 8 µg/mL. In test [7], this compound displayed an MIC of 8 Tg/mL.

For the compound “Ecp2: SEQ ID NO: 18, hypothetical protein (E. coli) (MARSRRRMSKRSSRRSFRKYAKSHKKNFKARSMRGGIRL; listed as Escherichia coli)”, the MIC in test [1] is 4 µg/mL; in test [2], 2 µg/mL; in test [3] it was 8 µg/mL; in test [4], 8 µg/mL; in test [5], 4 µg/mL; in test [6] it was 4 µg/mL. The compound further displayed an MIC in test [7] of 2 Tg/mL.

As for “Chp10: Chp peptide, SEQ ID NO: 10 (MKRRKLSKKKSRKIFTRGAVNVKKRNLRARPMRGGFRI; listed as Chlamydia trachomatis)”, the MIC in test [1] was found to be 0.5 µg/mL; in test [2], 4 µg/mL; in test [3] it was 0.5 µg/mL; in test [4], 1 µg/mL; in test [5], 1 µg/mL; in test [6], 8 µg/mL. The compound also registered an MIC in test [7] of 0.5 Tg/mL.

Turning to `CC(C)(O/N=C(\C(=O)N[C@@H]1C(=O)N2C(C(=O)[O-])=C(C[n+]3ccccc3)CS[C@H]12)c1csc(N)n1)C(=O)O` [Ceftazidime], in test [8], the Antibiotic MIC (single agent) turned out to be 512 µg/mL, the “Antibiotic FIC” value is recorded as 1 and the “Antibiotic MIC (combo)” value was 512.

Turning to “Unp1: SEQ ID NO: 15, unnamed protein product (uncultured bacterium) (MKMRKRTDKRVFTRTAAKSKKVNIAPKIFRGGIRL)”, the MIC in test [1] was 8 µg/mL; in test [2] it was 8 µg/mL; in test [3] it was 32 µg/mL; in test [4], 2 µg/mL; in test [5] it was 8 µg/mL; in test [6] it was 4 µg/mL. Besides, the MIC in test [7] worked out at 1 Tg/mL.

For “Fen7875: SEQ ID NO: 65, Gokushovirinae Fen7875_21 (MKPLKRKPVQKARSAAKFRRNVSTVKAANMAVKPMRGGWRF)”, the MIC in test [1] is 16 µg/mL; in test [2], 32 µg/mL; in test [3] it was 8 µg/mL; in test [4], 16 µg/mL; in test [5], 8 µg/mL; in test [6] it was 4 µg/mL. The MIC in test [7] stood at 2 Tg/mL.

With “Spi1: SEQ ID NO: 25, Spiroplasma virus SpV4 Orf9 (MAYRGFKTSRVVKHRVRRRWFNHRRRYR; Spiroplasma virus SpV4)”, the MIC in test [1] worked out at 2 µg/mL; in test [2], 0.5 µg/mL; in test [3], 4 µg/mL; in test [4], 16 µg/mL; in test [5], 8 µg/mL; in test [6], 16 µg/mL. Besides, the MIC in test [7] is reported as over 64 Tg/mL.

With “Chp4: Chp peptide, SEQ ID NO: 4, Phage 4 (MARRYRLSRRRSRRLFSRTALRMHRRNRLRRIMRGGIRF; Chlamydia phage 4)”, the MIC was 2 µg/mL in test [1]; over 0.125 µg/mL in test [2]; 1 µg/mL in test [3]; 4 µg/mL in test [4]; 4 µg/mL in test [5]; 16 µg/mL in test [6]. In test [7], the MIC stood at 1 Tg/mL.

In the case of “Unp4: SEQ ID NO: 94, Marine gokushovirus (MIVRRHKMSRRRSRKLFSKTASRTRSKNLRSRPMRGGYRI; listed as Marine gokushovirus)”, the MIC in test [1] was determined as 4 µg/mL; in test [2] it was 4 µg/mL; in test [3], 4 µg/mL; in test [4] it was 16 µg/mL; in test [5], 4 µg/mL; in test [6] it was 16 µg/mL. In test [7], this compound registered an MIC of 1 Tg/mL.

As to “AGT915: SEQ ID NO: 63, Marine gokushovirus (MRRYNVNKGKSAKKFRKQVSKTKVANLRSNPMRGGWRL; listed as Marine gokushovirus)”, the MIC in test [1] was over 64 µg/mL; in test [2] it was 1 µg/mL; in test [3], over 64 µg/mL; in test [4] it was 1 µg/mL; in test [5], 1 µg/mL; in test [6] it was 4 µg/mL. The same compound yielded an MIC in test [7] of over 64 Tg/mL.

As for `CO/N=C(\C(=O)N[C@@H]1C(=O)N2C(C(=O)[O-])=C(C[N+]3(C)CCCC3)CS[C@H]12)c1csc(N)n1` [Cefepime], in test [8], the Antibiotic MIC (single agent) was found to be 256 µg/mL; the “Antibiotic FIC” value was 0.25 and 0.125; the “Antibiotic MIC (combo)” value is 64 and 32.

Consider “Gkh1: SEQ ID NO: 13, Marine gokushovirus (MRRPRKMNYKKSKRMFSRTAARTHRKNSLRGSRPMRGGIRL; listed as Marine gokushovirus)”, for which the MIC amounted to 8 µg/mL in test [1]; 2 µg/mL in test [2]; 4 µg/mL in test [3]; 4 µg/mL in test [4]; 1 µg/mL in test [5]; 8 µg/mL in test [6]. The same compound gave an MIC in test [7] of 4 Tg/mL.

On to “Unp3-M1: Modified variant of Unp3, SEQ ID NO: 98 (MA[dR][dR][dK][dK]M[dK]G[dK][dR]D[dK][dR]VF[dK]QTAN[dK]T[dK]AINISP[dK]NM[dR]GGT[dR]L)”, for which the MIC was 8 µg/mL in test [1]; 16 µg/mL in test [2]; over 64 µg/mL in test [3]; 8 µg/mL in test [4]; 4 µg/mL in test [5]; 4 µg/mL in test [6]. This compound also displayed an MIC in test [7] of 8 Tg/mL.

“Spi2-M1: Modified variant of Spi2, SEQ ID NO: 99 (M[dR][dR][dK]V[dK]NT[dK][dR]HQW[dR]LTHSA[dR]SI[dK][dR]ANIMPSNP[dR]GG[dR][dR])”: the MIC in test [1] was 16 µg/mL; in test [2], 4 µg/mL; in test [3], over 64 µg/mL; in test [4], 1 µg/mL; in test [5], 4 µg/mL; in test [6], 8 µg/mL. This compound yielded an MIC in test [7] of over 64 Tg/mL.

With “Ecp3-M1: Modified variant of Ecp3, SEQ ID NO: 100 (MA[dR]S[dR][dR][dR]MS[dK][dR]SS[dR][dR]SF[dR][dK]YA[dK]TH[dK][dK]NF[dK]A[dR]SM[dR]GGI[dR]L)”, the MIC in test [1] came to 2 µg/mL; in test [2] it was 2 µg/mL; in test [3], 8 µg/mL; in test [4] it was 1 µg/mL; in test [5] it was 8 µg/mL; in test [6], 8 µg/mL. The compound further had an MIC in test [7] of 0.5 Tg/mL.

Consider “ALCES1: SEQ ID NO: 59, Alces alces faeces associated microvirus (MAKKIRNKARDRRIFTRTASRMHKANRTPRFMRGGIRL; Alces alces faeces associated microvirus MP12 5423)”, for which the MIC in test [1] worked out at 2 µg/mL; in test [2], 2 µg/mL; in test [3], 2 µg/mL; in test [4] it was 2 µg/mL; in test [5], 4 µg/mL; in test [6] it was 8 µg/mL. This compound also yielded an MIC in test [7] of 8 Tg/mL.

On to “HH3930: SEQ ID NO: 64, Richelia intracellularis HH01 (MRPVKRSRVNKARSAGKFRKQVGKTKMANLRSNPMRGGWRL)”, for which the MIC in test [1] worked out at 16 µg/mL; in test [2] it was 32 µg/mL; in test [3] it was 16 µg/mL; in test [4], 16 µg/mL; in test [5] it was 8 µg/mL; in test [6], 4 µg/mL. In test [7], this compound displayed an MIC of 4 Tg/mL.

On to “Chp1: Chp peptide, SEQ ID NO: 1, Phage Chp1 (MVRRRRLRRRISRRIFRRTVARVGRRRRSFRGGIRF; Chlamydia virus Chp1)”, for which the MIC was 4 µg/mL in test [1]; 4 µg/mL in test [2]; 4 µg/mL in test [3]; 16 µg/mL in test [4]; 16 µg/mL in test [5]; 32 µg/mL in test [6]. This compound also displayed an MIC in test [7] of 4 Tg/mL.
